Results on 21 molecules are retold here after ChEMBL document CHEMBL3351937, “Potential C-terminal-domain inhibitors of heat shock protein 90 derived from a C-terminal peptide helix” (Bioorg Med Chem, 2014).

The nature of data set [1]: Cytotoxicity against human MDA-kb2 cells assessed as reduction in cell viability after 18 hrs by Promega cell titer-Glo assay. It is filed as functional. The note with it: MDA-kb2, 18 h, read-out: LC50 (the source's name). In general terms: Cellular ATP, detected with luciferase, serves as a proxy for viable cell number.
Data set [2] deals with T1, Heat shock protein HSP 90 (Oryctolagus cuniculus, UniProt P11500).
T1 sequence (P11500 whole entry): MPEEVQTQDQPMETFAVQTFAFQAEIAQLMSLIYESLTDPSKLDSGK
Description: Inhibition of HSP90 in rabbit reticulocyte lysate after 90 mins by luciferase renaturation assay.

Data set [3] concerns the target T2, Heat shock protein HSP 90-beta (Homo sapiens, UniProt P08238). The data set is described as follows: Inhibition of HSP90 in human MDA-kb2 cells assessed as reduction in glucocorticoid receptor-dependent luciferase expression after 18 hrs by firefly luciferase reporter gene assay. The data set is classed as cell-based. In general terms: A reporter such as luciferase makes a cellular process visible.

Data set [4] is described as follows: Solubility in phosphate buffer. It is filed as physicochemical.
Another data set concerns MDA-kb2. Description: Induction of plasma membrane disruption in human MDA-kb2 cells. It is filed as functional, cell-based.
Data set [5] concerns the target T3, Heat shock protein HSP 90 (Oryctolagus cuniculus) (UniProt P11500).
T3 sequence (whole entry): T1 sequence (P11500 whole entry)
Description: Inhibition of HSP90 in rabbit reticulocyte lysate at 250 uM after 90 mins by luciferase renaturation assay.

Data set [6] deals with T2, Heat shock protein HSP 90-beta. The data set is described as follows: Binding affinity to human HSP90 using FAM-labeled compound by fluorescence polarization assay. (In general: In fluorescence polarisation assays a small probe gives low polarisation when free and higher when bound to something large.)
Data set [7] shares this target. Description: Binding affinity to human HSP90 using FITC-labeled compound at 1 nM by fluorescence polarization assay.

Active and inactive are the calls of the source. The rule behind the calls is not given here. Bridge positions count the residues as written; N and C are the ends. Square brackets hold non-standard residues; d marks the D form. Peptide text beside a SMILES is read from it. * marks the point of attachment. 5FAM = O=C1OC2(c3ccc(O)cc3Oc3cc(O)ccc32)c2ccc(C(=O)*)cc21; S5 = C=CCCC[C@](C)(N)C(=O)O

A word on the IC50: it is the midpoint of a concentration-inhibition curve. A word on the solubility: it is the concentration that dissolves in the medium under given conditions. High values mean much dissolved substance, low ones little dissolved substance.

T2 sequence (P08238 whole entry): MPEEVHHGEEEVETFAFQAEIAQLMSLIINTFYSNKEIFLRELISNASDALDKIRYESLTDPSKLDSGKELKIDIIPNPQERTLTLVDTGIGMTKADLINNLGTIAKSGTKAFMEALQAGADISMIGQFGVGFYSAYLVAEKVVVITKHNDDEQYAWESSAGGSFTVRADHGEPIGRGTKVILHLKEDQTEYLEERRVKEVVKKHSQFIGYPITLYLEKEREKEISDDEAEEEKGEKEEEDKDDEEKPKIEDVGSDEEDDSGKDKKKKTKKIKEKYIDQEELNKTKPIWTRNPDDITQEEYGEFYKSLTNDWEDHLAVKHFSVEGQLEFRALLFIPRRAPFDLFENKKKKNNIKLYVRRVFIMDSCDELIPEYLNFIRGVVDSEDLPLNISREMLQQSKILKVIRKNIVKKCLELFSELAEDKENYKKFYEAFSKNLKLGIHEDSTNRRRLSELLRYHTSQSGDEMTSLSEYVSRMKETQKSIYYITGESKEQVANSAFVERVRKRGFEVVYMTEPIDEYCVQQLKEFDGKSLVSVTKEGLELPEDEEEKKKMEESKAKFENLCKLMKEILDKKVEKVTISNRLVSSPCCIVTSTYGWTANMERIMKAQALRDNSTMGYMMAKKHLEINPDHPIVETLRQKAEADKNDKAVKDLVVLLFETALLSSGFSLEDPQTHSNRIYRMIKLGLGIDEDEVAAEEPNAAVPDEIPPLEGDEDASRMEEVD

`COC1=C2C[C@@H](C)C[C@H](OC)[C@H](O)[C@@H](C)/C=C(\C)[C@H](OC(N)=O)[C@@H](OC)/C=C\C=C(/C)C(=O)NC(=CC1=O)C2=O` [GELDANAMYCIN]: in data set [1], the CC50 was more than 2 µM.
In the case of `CSCC[C@@H]1NC(=O)[C@H](CCCNC(=N)N)NC(=O)[C@H](Cc2ccc(O)cc2)NC(=O)[C@@H](NC(=O)[C@H](CCCNC(=N)N)NC(=O)[C@H](CC(N)=O)NC(=O)[C@H](C)NC(=O)[C@H](Cc2cnc[nH]2)NC(=O)[C@@H](NC(=O)[C@H](CCC(N)=O)NC(=O)[C@@H]2CCCN2C(=O)[C@H](CC(=O)O)NC(C)=O)[C@@H](C)O)CCCCNC(=O)C[C@@H](C(=O)N[C@@H](CCCCN)C(=O)N[C@@H](CC(C)C)C(=O)NCC(=O)N[C@@H](CC(C)C)C(=O)NCC(N)=O)NC1=O` (Ac-DPQTHANRKYRMDKLGLG-NH2; lactam 9-13), the half-inhibitory concentration (IC50) in data set [2] is 168 µM; in data set [3], more than 120 µM. In data set [4], this molecule had a solubility not below 100 µM. The CC50 in data set [1] was more than 120 µM.
As for Ac-DPQTHANRIYRMIKLWLG-NH2, in the data set on MDA-kb2, the result was Active. The same molecule came in with a solubility in data set [4] not below 100 µM. In data set [1], the CC50 is 18.9 µM.
As for Ac-DPQTFANRIYRMIKLGLG-NH2, the inhibition entry in data set [5] is “Active”.
With Ac-DPQTHANRIYRMIKLGLG-NH2, the results for the IC50 in data set [2] and in data set [3] were 233 µM and more than 160 µM, respectively. Further, the inhibition entry in data set [5] was “Active”. For the same molecule, the solubility in data set [4] was not below 100 µM. For the same molecule, in data set [1], the CC50 is more than 160 µM.
As to Ac-FQAEIAQLMSLIINTFY-NH2, the inhibition entry in data set [5] is “inactive”.
Consider `CC[C@H](C)[C@H](NC(=O)[C@H](CCCNC(=N)N)NC(=O)[C@H](CC(N)=O)NC(=O)[C@H](C)NC(=O)[C@H](Cc1cnc[nH]1)NC(=O)[C@@H](NC(=O)[C@H](CCC(N)=O)NC(=O)[C@@H]1CCCN1C(=O)[C@H](CC(=O)O)NC(C)=O)[C@@H](C)O)C(=O)N[C@@H](Cc1ccc(O)cc1)C(=O)N[C@@H](CCCNC(=N)N)C(=O)N[C@@H](CCSC)C(=O)N[C@H](C(=O)N[C@H]1CCCCNC(=O)C[C@@H](C(=O)O)NC(=O)[C@H](CC(C)C)NC(=O)CNC(=O)[C@H](CC(C)C)NC1=O)[C@@H](C)CC` (Ac-DPQTHANRIYRMIKLGLD-OH; lactam 14-18), for which the figures for the 50% inhibitory concentration (IC50) in data set [2] and in data set [3] were 37 µM and 121 µM, respectively. In data set [4], this molecule showed a solubility not below 100 µM. In data set [1], the CC50 was found to be 97 µM.
For Ac-DPQTHANRIYRLIKLGLG-NH2, the inhibition entry in data set [5] is “Active”.
For `CC[C@H](C)[C@H](NC(=O)[C@H](CCCNC(=N)N)NC(=O)[C@H](CC(N)=O)NC(=O)[C@H](C)NC(=O)[C@H](Cc1cnc[nH]1)NC(=O)[C@@H](NC(=O)[C@H](CCC(N)=O)NC(=O)[C@@H]1CCCN1C(=O)[C@H](CC(=O)O)NC(C)=O)[C@@H](C)O)C(=O)N[C@@H](Cc1ccc(O)cc1)C(=O)N[C@@H](CCCNC(=N)N)C(=O)N[C@H]1CCCCNC(=O)C[C@@H](C(=O)N[C@@H](CC(C)C)C(=O)NCC(N)=O)NC(=O)[C@H](CC(C)C)NC(=O)[C@H](CCCCN)NC(=O)[C@H]([C@@H](C)CC)NC1=O` (Ac-DPQTHANRIYRKIKLDLG-NH2; lactam 12-16), the IC50 was 137 µM in data set [2] and more than 67 µM in data set [3]. This molecule registered a solubility in data set [4] not below 100 µM. The CC50 in data set [1] was more than 67 µM.
Turning to Ac-DPQTHANRIYRMIKLLLG-NH2, in data set [3], the IC50 came out at 18.6 µM. Moreover, the inhibition entry in data set [5] was “Active”. The same molecule came in with a solubility in data set [4] not below 100 µM. For the same molecule, the CC50 in data set [1] was determined as 22.9 µM.
For Ac-DPQTHANRIYRMIKLGNG-NH2, in data set [5], the inhibition result is “Active”.
Consider `CC[C@H](C)[C@H](NC(=O)[C@H](CCCNC(=N)N)NC(=O)[C@H](CC(N)=O)NC(=O)[C@H](C)NC(=O)[C@H](Cc1cnc[nH]1)NC(=O)[C@@H](NC(=O)[C@H](CCC(N)=O)NC(=O)[C@@H]1CCCN1C(=O)[C@H](CC(=O)O)NC(C)=O)[C@@H](C)O)C(=O)N[C@@H](Cc1ccc(O)cc1)C(=O)N[C@@H](CCCNC(=N)N)C(=O)N[C@@]1(C)CCC/C=C/CCC[C@@](C)(C(=O)N[C@@H](CC(C)C)C(=O)NCC(N)=O)NC(=O)[C@H](CC(C)C)NC(=O)[C@H](CCCCN)NC(=O)[C@H]([C@@H](C)CC)NC1=O` (Ac-DPQTHANRIYR[S5]IKL[S5]LG-NH2; staple (E) 12-16), for which the results for the IC50 in data set [2] and in data set [3] were 37.9 µM and 18.8 µM, respectively. The same molecule registered a solubility in data set [4] not below 100 µM. The CC50 in data set [1] was 26.6 µM.
Take `CC[C@H](C)[C@H](NC(=O)[C@H](CCCNC(=N)N)NC(=O)[C@H](CC(N)=O)NC(=O)[C@H](C)NC(=O)[C@H](Cc1cnc[nH]1)NC(=O)[C@@H](NC(=O)[C@H](CCC(N)=O)NC(=O)[C@@H]1CCCN1C(=O)[C@H](CC(=O)O)NC(C)=O)[C@@H](C)O)C(=O)N[C@@H](Cc1c[nH]c2ccccc12)C(=O)N[C@@H](CCCNC(=N)N)C(=O)N[C@@H](CCSC)C(=O)N[C@H](C(=O)N[C@H]1CCCCNC(=O)C[C@@H](C(N)=O)NC(=O)[C@H](CC(C)C)NC(=O)[C@H](Cc2c[nH]c3ccccc23)NC(=O)[C@H](CC(C)C)NC1=O)[C@@H](C)CC` (Ac-DPQTHANRIWRMIKLWLD-NH2; lactam 14-18): the outcome in the data set on MDA-kb2 was Active. Also, the half-inhibitory concentration (IC50) was determined as 4.11 µM in data set [2] and 0.73 µM in data set [3]. For the same molecule, the solubility in data set [4] was not below 100 µM. The CC50 in data set [1] came out at 1.86 µM.
On to `CC[C@H](C)[C@H](NC(=O)[C@H](CCCNC(=N)N)NC(=O)[C@H](CC(N)=O)NC(=O)[C@H](C)NC(=O)[C@H](Cc1cnc[nH]1)NC(=O)[C@@H](NC(=O)[C@H](CCC(N)=O)NC(=O)[C@@H]1CCCN1C(=O)[C@H](CC(=O)O)NC(=O)c1ccc2c(c1)C(=O)OC21c2ccc(O)cc2Oc2cc(O)ccc21)[C@@H](C)O)C(=O)N[C@@H](Cc1c[nH]c2ccccc12)C(=O)N[C@@H](CCCNC(=N)N)C(=O)N[C@@H](CCSC)C(=O)N[C@H](C(=O)N[C@@H](CCCCN)C(=O)N[C@@H](CC(C)C)C(=O)N[C@@H](Cc1c[nH]c2ccccc12)C(=O)N[C@@H](CC(C)C)C(=O)N[C@@H](CC(=O)O)C(N)=O)[C@@H](C)CC` (5FAM-DPQTHANRIWRMIKLWLD-NH2), for which the result in data set [6] was inactive.
With Ac-DPQTHANRIWRMIKLGLG-NH2, in data set [5], the inhibition entry is “Active”.
Consider Ac-DPFTHANRIYRMIKLGLG-NH2, for which, in data set [5], the inhibition entry is “Active”.
Turning to `CO[C@@H]1[C@@H](OC(N)=O)[C@@H](O)[C@H](Oc2ccc3c(O)c(NC(=O)c4ccc(O)c(CC=C(C)C)c4)c(=O)oc3c2C)OC1(C)C` [NOVOBIOCIN], the inhibition result in data set [5] was “Active”. Besides, the CC50 in data set [1] turned out to be 690 µM.
As for `CO[C@H]1/C=C\C=C(/C)C(=O)NC2=CC(=O)C(NCCCCCCNC(=S)Nc3ccc(-c4c5ccc(=O)cc-5oc5cc(O)ccc45)c(C(=O)O)c3)=C(C[C@@H](C)C[C@H](OC)[C@H](O)[C@@H](C)/C=C(\C)[C@@H]1OC(N)=O)C2=O`, the result in data set [7] was Active.
For the molecule `CO[C@H]1[C@H](OC(=O)c2ccc(C)[nH]2)[C@H](O)[C@@H](Oc2ccc3c(O)c(NC(=O)c4c[nH]c(C(=O)Nc5c(O)c6ccc(O[C@H]7OC(C)(C)[C@@H](OC)[C@H](OC(=O)c8ccc(C)[nH]8)[C@@H]7O)c(C)c6oc5=O)c4C)c(=O)oc3c2C)OC1(C)C` [COUMERMYCIN A1], the IC50 in data set [2] amounted to 28.1 µM; in data set [3], 15.3 µM. In data set [1], the CC50 worked out at 19.1 µM.
`C=CCCC[C@](C)(NC(=O)[C@H](CC(C)C)NC(=O)[C@H](CCCCN)NC(=O)[C@@H](NC(=O)[C@](C)(CCCC=C)NC(=O)[C@H](CCCNC(=N)N)NC(=O)[C@H](Cc1ccc(O)cc1)NC(=O)[C@@H](NC(=O)[C@H](CCCNC(=N)N)NC(=O)[C@H](CC(N)=O)NC(=O)[C@H](C)NC(=O)[C@H](Cc1cnc[nH]1)NC(=O)[C@@H](NC(=O)[C@H](CCC(N)=O)NC(=O)[C@@H]1CCCN1C(=O)[C@H](CC(=O)O)NC(C)=O)[C@@H](C)O)[C@@H](C)CC)[C@@H](C)CC)C(=O)N[C@@H](CC(C)C)C(=O)NCC(N)=O` (Ac-DPQTHANRIYR[S5]IKL[S5]LG-NH2): the solubility in data set [4] was not below 100 µM. Moreover, in data set [1], the CC50 came out at 19.1 µM.
On to `CC[C@H](C)[C@H](NC(=O)[C@H](CCCNC(=N)N)NC(=O)[C@H](CC(N)=O)NC(=O)[C@H](C)NC(=O)[C@H](Cc1cnc[nH]1)NC(=O)[C@@H](NC(=O)[C@H](CCC(N)=O)NC(=O)[C@@H]1CCCN1C(=O)[C@H](CC(=O)O)NC(C)=O)[C@@H](C)O)C(=O)N[C@@H](Cc1ccc(O)cc1)C(=O)N[C@@H](CCCNC(=N)N)C(=O)N[C@@H](CCSC)C(=O)N[C@H](C(=O)N[C@H]1CCCCNC(=O)C[C@@H](C(N)=O)NC(=O)[C@H](CC(C)C)NC(=O)[C@H](Cc2c[nH]c3ccccc23)NC(=O)[C@H](CC(C)C)NC1=O)[C@@H](C)CC` (Ac-DPQTHANRIYRMIKLWLD-NH2; lactam 14-18), for which the figures for the half-inhibitory concentration (IC50) in data set [2] and in data set [3] were 8.43 µM and more than 27 µM, respectively. The molecule further showed a solubility in data set [4] not below 100 µM. Besides, the CC50 in data set [1] was more than 27 µM.
